According to patent EP4635951A1, “SALT-TYPE GLP-1 RECEPTOR AGONIST, CRYSTAL FORM THEREOF, PREPARATION METHOD THEREFOR, PHARMACEUTICAL COMPOSITION THEREOF, AND USE THEREOF” (Hangzhou Zhongmeihuadong Pharmaceutical Co., Ltd., priority 2022, dated 2024):
In brackets after ≈: the same amount, converted by molar mass.

What was measured:
[1] = Hygroscopicity by DVS; format: physicochemical; settings: 25°C, 80%RH
[2] = Equilibrium solubility; format: physicochemical; settings: 37°C
Procedure: After 24 hours, samples were taken. The samples were centrifuged for separation, and the supernatant after filtration was used for solubility determination.

[3] = physchem
[4] = Dynamic solubility; settings: for Dynamic solubility in water: 37°C±2°C
[5] = target: T1, Human GLP-1R (Homo sapiens, UniProt P43220); test: GLP-1R agonistic activity, HTRF cAMP assay in 293A GFP-GLP-1R cells; format: cell-based; settings: result in words
T1 construct: expressed in transfected cells; host or cells: 293A cells stably expressing GLP-1R-GFP
Excerpt: The method was a competitive immunoassay.

[6] = Solid-state stability, long-term and accelerated conditions; format: physicochemical; settings: for Purity / purity decrease: 10 days
Excerpt: The free Compound I was in a crystalline form, and had the XRPD pattern indicated by the arrow in Figure 50.

[7] = High-temperature stability test; format: physicochemical
[8] = Suspension competition tests between Crystal Form A and Crystal Form P; format: physicochemical; settings: room temperature and 50°C
Procedure: The suspensions of Compound Z that had been equilibrated for 2 hours under the corresponding temperature and solvent conditions were filtered to obtain saturated solutions of Compound Z under different temperature and solvent conditions, and then solid mixtures of Crystal Forms A and P of Compound Z were added. After the suspension competition was carried out for 1 day, the solids were separated for XRPD characterization.

[9] = Water activity stability of crystal form; format: physicochemical
[10] = High-humidity stability; format: physicochemical
[11] = Pressure stability; format: physicochemical
[12] = listed as Compound I in the amorphous form
[13] = FaSSGF, 37 °C, fassgf or other biorelevant, thermodynamic from solid
[14] = fassif, 37 °C, thermodynamic from solid

T1 sequence (P43220 24-463): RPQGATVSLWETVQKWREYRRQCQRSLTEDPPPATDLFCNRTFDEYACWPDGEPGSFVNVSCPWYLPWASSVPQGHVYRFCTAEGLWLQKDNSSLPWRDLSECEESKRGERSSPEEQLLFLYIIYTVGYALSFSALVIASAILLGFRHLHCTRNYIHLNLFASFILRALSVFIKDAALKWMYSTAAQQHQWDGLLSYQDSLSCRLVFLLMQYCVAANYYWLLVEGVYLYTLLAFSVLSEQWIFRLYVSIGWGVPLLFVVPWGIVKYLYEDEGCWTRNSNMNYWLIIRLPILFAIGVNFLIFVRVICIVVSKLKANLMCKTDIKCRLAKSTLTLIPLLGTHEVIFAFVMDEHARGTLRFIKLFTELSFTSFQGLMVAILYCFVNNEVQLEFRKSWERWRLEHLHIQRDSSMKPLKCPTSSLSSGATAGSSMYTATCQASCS

## O=C(O)c1ccc2nc(CN3CCC(c4cccc(OCc5ccc(C6COC6)cc5F)n4)CC3)n(C[C@@H]3CCO3)c2c1 [Amorphous form of Compound I]
[1]; [12]
  hygroscopicity class: hygroscopic (a weight gain of 2%-15% indicates hygroscopic)
  weight gain (water absorbed): 4.029%
[2]; fassif, FaSSIF (fasted-state simulated intestinal fluid)
  solubility thermodynamic at 24 h: 150 µg/mL (≈ 256 µM)
[2]; fessif, FeSSIF (fed-state simulated intestinal fluid)
  solubility thermodynamic at 24 h: 800 µg/mL (≈ 1360 µM)
[2]; purified water, H2O (purified water)
  solubility thermodynamic at 24 h: 430 µg/mL (≈ 733 µM)
[2]; sgf (simulated gastric fluid)
  solubility thermodynamic at 24 h: 410 µg/mL (≈ 699 µM)

## O=C(O)c1ccc2nc(CN3CCC(c4cccc(OCc5ccc(C6COC6)cc5F)n4)CC3)n(C[C@@H]3CCO3)c2c1 [Compound I, (S)-2-((4-(6-((2-fluoro-4-(oxetan-3-yl)benzyl)oxy)pyridin-2-yl)piperidin-1-yl)methyl)-1-(oxetan-2-ylmethyl)-1H-benzo[d]imidazole-6-carboxylic acid]
[3]; [13]
  solubility at 1 h: 100 µg/mL (≈ 170 µM)
  solubility at 2 h: 90 µg/mL (≈ 153 µM)
  solubility at 4 h: 110 µg/mL (≈ 188 µM)
  solubility at 24 h: 100 µg/mL (≈ 170 µM)
[3]; [14]
  solubility at 1 h: 40 µg/mL (≈ 68.2 µM)
  solubility at 4 h: 120 µg/mL (≈ 205 µM)
  solubility at 24 h: 210 µg/mL (≈ 358 µM)
[4]; FaSSGF, 1 h, listed as Free Compound I
  XRPD of Residual Solid: Crystal Form A of the hydrochloride of Compound I
[4]; FaSSGF, 2 h, listed as Free Compound I
  XRPD of Residual Solid: Crystal Form A of the hydrochloride of Compound I
[4]; FaSSIF, 2 h
  Whether the crystal form changed: YES
  XRPD of Residual Solid: Crystal Form A of Compound I
[4]; FaSSIF, 2 h, listed as Free Compound I
  Dynamic solubility in water: 70 µg/mL
[4]; FaSSIF, 4 h
  Whether the crystal form changed: YES
  XRPD of Residual Solid: Crystal Form A of Compound I
[4]; FaSSIF, 24 h
  Whether the crystal form changed: YES
  XRPD of Residual Solid: Crystal Form A of Compound I
[4]; H2O (water), 1 h
  Whether the crystal form changed: YES
  XRPD of Residual Solid: Crystal Form A of Compound I
[4]; H2O (water), 4 h, listed as Free Compound I
  Dynamic solubility in water: 30 µg/mL
[4]; H2O (water), 24 h, listed as Free Compound I
  Dynamic solubility in water: 30 µg/mL
[5]
  agonistic effect on GLP-1R: strong agonistic effect

## O=C(O)c1ccc2nc(CN3CCC(c4cccc(OCc5ccc(C6COC6)cc5F)n4)CC3)n(C[C@@H]3CCO3)c2c1 [Crystal Form A of Compound Z]
[1]
  hygroscopicity class: slightly hygroscopic (a weight gain of 0.2%-2% indicates slightly hygroscopic)
  weight gain (water absorbed): 1.696%
[6]; 25°C/60%RH
  Purity: 97.38 % Area
[6]; 40°C/75%RH
  Purity: 97.35 % Area
[6]; HPLC, before storage
  initial purity: 97.41 % Area
[6]; accelerated conditions (40°C/75%RH)
  purity decrease: no obvious decrease
[6]; long-term conditions (25°C/60%RH)
  purity decrease: no obvious decrease
[7]; 60°C, 1 day
  purity decrease after 1 day: no obvious decrease
[7]; HPLC purity (% area), 60°C, 1 day
  purity after 1 day: 97.34%
[7]; HPLC purity (% area), before 60°C
  initial purity: 97.41%
[3]; [13]
  solubility at 1 h: 40 µg/mL (≈ 68.2 µM)
  solubility at 2 h: 140 µg/mL (≈ 239 µM)
  solubility at 4 h: 120 µg/mL (≈ 205 µM)
[3]; fassif
  solubility at 2 h: 130 µg/mL (≈ 222 µM)
[3]; [14]
  solubility at 1 h: 130 µg/mL (≈ 222 µM)
  solubility at 4 h: 110 µg/mL (≈ 188 µM)
  solubility at 24 h: 280 µg/mL (≈ 477 µM)
[3]; water
  solubility at 1 h: 5500 µg/mL (≈ 9380 µM)
  solubility at 2 h: 1380 µg/mL (≈ 2350 µM)
[3]; water, 37 °C, fassgf or other biorelevant, thermodynamic from solid
  solubility: 60 µg/mL (≈ 102 µM)
[8]
  thermodynamic stability relative to Crystal Form P: thermodynamically more stable
[2]; FaSSIF (fasted-state simulated intestinal fluid)
  solubility thermodynamic at 24 h: 1190 µg/mL (≈ 2030 µM)
[2]; FeSSIF (fed-state simulated intestinal fluid)
  solubility thermodynamic at 24 h: 1170 µg/mL (≈ 1990 µM)
[2]; H2O (purified water)
  solubility thermodynamic at 24 h: 1940 µg/mL (≈ 3310 µM)
[2]; SGF (simulated gastric fluid)
  solubility thermodynamic at 24 h: 1000 µg/mL (≈ 1700 µM)
[4]; FaSSGF, 1 h
  Whether the crystal form changed: YES
  XRPD of Residual Solid: Amorphous
[4]; FaSSGF, 2 h
  Whether the crystal form changed: YES
  XRPD of Residual Solid: Amorphous
[4]; FaSSGF, 4 h
  Whether the crystal form changed: YES
  XRPD of Residual Solid: Crystal Form A of the hydrochloride of Compound I
[4]; FaSSGF, 24 h
  Whether the crystal form changed: YES
  XRPD of Residual Solid: Crystal Form A of the hydrochloride of Compound I
[4]; FaSSIF, 1 h
  Whether the crystal form changed: YES
  XRPD of Residual Solid: Crystal Form A of Compound I
[4]; H2O (water), 2 h
  Whether the crystal form changed: YES
  XRPD of Residual Solid: Crystal Form A of Compound I
[4]; H2O (water), 4 h
  Whether the crystal form changed: YES
  XRPD of Residual Solid: Crystal Form A of Compound I
[4]; H2O (water), 4 h, 240 min
  Dynamic solubility in water: 1230 µg/mL
[4]; H2O (water), 24 h
  Whether the crystal form changed: YES
  XRPD of Residual Solid: Crystal Form A of Compound I
[4]; H2O (water), 24 h, 1440 min
  Dynamic solubility in water: 1330 µg/mL
[9]
  water activity aw at which the crystal form is stable: ≤ 0.388
[10]; 90%RH, 10 days
  purity decrease: no obvious decrease
[10]; HPLC purity (% area), before high humidity
  initial purity: 97.41%
[11]; 1000 Mpa, 5 minutes
  purity decrease: no obvious decrease
[11]; HPLC purity (% area), before pressing
  initial purity: 97.31%
